For 20 compounds, IC50 results are on record in patent US20250019387A1 (Frontier Medicines Corporation, priority 0001, published 2025).

Molecules are shown by their SMILES. Where two headings read alike, the source gives them in different places.

This experiment addresses KRAS G12C and cRAF (Ras-binding domain) interaction (Homo sapiens (Human), UniProt P01116, C118S/C51S/C80L/G12C). Put plainly: Inhibition of KRAS G12C and cRAF binding (AlphaScreen). The method, then:
Compounds were diluted in 100% DMSO and each compound concentration was spotted at 200 nl/well onto low volume, white 384 well plates. […] Plates were incubated for 19-20 hours. A mixture of RBD and the AlphaScreen streptavidin donor and glutathione acceptor beads diluted in 25 mM Hepes, pH 7.4, 150 mM NaCl, 5 mM MgCl2, 0.01% TritonX-100 and 2% DMSO was then added at 10 ul/well and incubated for 60-90 minutes before the samples were read for emission at 570 nm after excitation of the donor beads at 680 nm. All incubations were performed at room temperature. […] IC50s were determined using nonlinear regression fit of [inhibitor]vs. response (4 parameters). […]

Setting [1] is: GMPPNP-loaded KRAS G12C, 19-20 hours incubation with compound, read-out: IC50 (Inhibition of KRAS G12C and cRAF Binding).
The mark [2] stands for this setting: additional exemplary compounds, KRAS G12C and cRAF binding, read-out: RAF1 RBD IC50.

KRAS G12C and cRAF (Ras-binding domain) interaction, sequence (P01116 other isoform, or with tags, fused parts or gaps G12C/C51S/C80L/C118S): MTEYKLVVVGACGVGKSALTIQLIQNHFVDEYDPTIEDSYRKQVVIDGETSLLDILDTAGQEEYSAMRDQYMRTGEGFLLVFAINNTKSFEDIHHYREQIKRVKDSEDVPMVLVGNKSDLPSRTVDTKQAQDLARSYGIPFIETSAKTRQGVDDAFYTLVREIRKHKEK

Regarding `COC(=O)/C=C/C(=O)N1CC[C@@H](N(C)c2nc(OC[C@@H]3CCCN3C)nc3c2CCN(c2cccc4ccc(F)c(Cl)c24)C3)C1` [Example 3, methyl(E)-4-((R)-3-((7-(8-chloro-7-fluoronaphthalen-1-yl)-2-(((S)-1-methylpyrrolidin-2-yl)methoxy)-5,6,7,8-tetrahydropyrido[3,4-d]pyrimidin-4-yl)(methyl)amino)pyrrolidin-1-yl)-4-oxobut-2-enoate], the IC50 (usually the concentration that gives 50% inhibition) under setting [1] lay within 10 to 100 nM.
Same read-out and setting: the same measure for `CN(c1nc(OC[C@@]23CCCN2C[C@H](F)C3)nc2c(F)c(-c3cccc4cccc(Cl)c34)ncc12)[C@@H]1CCN(C(=O)C#CC2CNCCO2)C1` (stereo partly drawn) [Example 64, 1-((R)-3-((7-(8-chloronaphthalen-1-yl)-8-fluoro-2-(((2R,7aS)-2-fluorohexahydro-1H-pyrrolizin-7a-yl)methoxy)pyrido[4,3-d]pyrimidin-4-yl)(methyl)amino)pyrrolidin-1-yl)-3-(morpholin-2-yl)prop-2-yn-1-one]: less than 10 nM.
In the case of `CN(CC1CN(C#N)C1)c1nc(OC[C@@H]2CCCN2C)nc2c(F)c(-c3cccc4cccc(Cl)c34)ncc12`, the IC50 under setting [2] was more than 500 nM.
Regarding `Cc1cc(/C=C/C(=O)N2CCN(c3nc(OC[C@@]45CCCN4C[C@H](F)C5)nc4c(F)c(-c5cccc6cccc(Cl)c56)ncc34)CC2)nc(C)n1` [Example 243, (E)-1-(4-(7-(8-chloronaphthalen-1-yl)-8-fluoro-2-(((2R,7aS)-2-fluorotetrahydro-1H-pyrrolizin-7a(5H)-yl)methoxy)pyrido[4,3-d]pyrimidin-4-yl)piperazin-1-yl)-3-(2,6-dimethylpyrimidin-4-yl)prop-2-en-1-one], the IC50 under setting [1] fell in the range of 100 to 500 nM.
Turning to `C#Cc1c(F)ccc2cccc(-c3ncc4c(N(C)[C@@H]5CCN(C(=O)/C=C/c6ccncc6)C5)nc(OC[C@@]56CCCN5C[C@H](F)C6)nc4c3F)c12`, the IC50 under setting [2] is more than 500 nM.
For the compound `C=CC(=O)N1C[C@@H](F)[C@@H](N(C)c2nc(OC[C@@]34CCCN3C[C@H](F)C4)nc3c(F)c(-c4cccc5cccc(Cl)c45)ncc23)C1`, the IC50 under setting [2] was more than 500 nM.
As to `CN(c1nc(OC[C@@]23CCCN2C[C@H](F)C3)nc2c(F)c(-c3cccc4cccc(Cl)c34)ncc12)[C@@H]1CCN(C(=O)/C=C/c2nc(C3(F)CCC3)no2)C1` [Example 208, (E)-1-((R)-3-((7-(8-chloronaphthalen-1-yl)-8-fluoro-2-(((2R,7aS)-2-fluorotetrahydro-1H-pyrrolizin-7a(5H)-yl)methoxy)pyrido[4,3-d]pyrimidin-4-yl)(methyl)amino)pyrrolidin-1-yl)-3-(3-(1-fluorocyclobutyl)-1,2,4-oxadiazol-5-yl)prop-2-en-1-one], the IC50 under setting [1] is less than 10 nM.
For the compound `C=CC(=O)N1C[C@H](F)[C@@H](N(C)c2nc(OC[C@@]34CCCN3C[C@H](F)C4)nc3c(F)c(-c4cccc5cccc(Cl)c45)ncc23)C1` [drawing 2208], under setting [2], the IC50 fell in the range of 10 to 100 nM.
Take `C#Cc1c(F)ccc2cccc(-c3ncc4c(N(C)[C@@H]5CCN(C(=O)/C=C/c6nc(C)ncc6F)C5)nc(OC[C@@]56CCCN5C[C@H](F)C6)nc4c3F)c12` [Example 301, (E)-1-((R)-3-((7-(8-ethynyl-7-fluoronaphthalen-1-yl)-8-fluoro-2-(((2R,7aS)-2-fluorohexahydro-1H-pyrrolizin-7a-yl)methoxy)pyrido[4,3-d]pyrimidin-4-yl)(methyl)amino)pyrrolidin-1-yl)-3-(5-fluoro-2-methylpyrimidin-4-yl)prop-2-en-1-one]: the IC50 under setting [1] fell in the range of 10 to 100 nM.
In the case of `C=CC(=O)N1CC[C@@H](N(C)c2nc(OC[C@]34CCCN3C[C@@H](F)C4)nc3c2CCN(c2cccc4cccc(Cl)c24)C3)C1`, the IC50 under setting [2] is more than 500 nM.
On to `C=CC(=O)CCNc1nc(OC[C@@H]2CCCN2C)nc2c1CCN(c1cccc3ccccc13)C2`, for which, under setting [2], the IC50 was more than 500 nM.
As to `COC(=O)/C=C/C(=O)N1CC(CN(C)c2nc(OC[C@@H]3CCCN3C)nc3c2CCN(c2cccc4cccc(Cl)c24)C3)C1` [Example 16, methyl(S,E)-4-(3-(((7-(8-chloronaphthalen-1-yl)-2-((1-methylpyrrolidin-2-yl)methoxy)-5,6,7,8-tetrahydropyrido[3,4-d]pyrimidin-4-yl)(methyl)amino)methyl)azetidin-1-yl)-4-oxobut-2-enoate], under setting [1], the IC50 was in the range of 10 to 100 nM.
Turning to `COCCN(C)C/C=C/S(=O)(=O)CCN(C)c1nc(OCC23CCCN2CCC3)nc2c(F)c(-c3cccc4cccc(Cl)c34)ncc12`, the IC50 under setting [2] is 10 to 100 nM.
On to `CN(c1nc(OC[C@@]23CCCN2C[C@H](F)C3)nc2c(F)c(-c3cccc4ccc(F)c(Cl)c34)ncc12)[C@@H]1CCN(C(=O)/C=C/C2CCCN2)C1` (stereo partly drawn) [Example 102, (E)-1-((R)-3-((7-(8-chloro-7-fluoronaphthalen-1-yl)-8-fluoro-2-(((2R,7aS)-2-fluorotetrahydro-1H-pyrrolizin-7a(5H)-yl)methoxy)pyrido[4,3-d]pyrimidin-4-yl)(methyl)amino)pyrrolidin-1-yl)-3-(pyrrolidin-2-yl)prop-2-en-1-one], for which the IC50 under setting [1] lay within 10 to 100 nM.
Consider `C=CC(=O)N1CC[C@@H]1CN(C)c1nc(OC[C@@]23CCCN2C[C@H](F)C3)nc2c(F)c(-c3cccc4cccc(Cl)c34)ncc12`, for which the IC50 under setting [2] was more than 500 nM.
Take `CN(CC1CN(C(=O)/C=C/c2ccncn2)C1)c1nc(OC[C@@]23CCCN2C[C@H](F)C3)nc2c(F)c(-c3cccc4cccc(Cl)c34)ncc12` [Example 63, (E)-1-(3-(((7-(8-chloronaphthalen-1-yl)-8-fluoro-2-(((2R,7aS)-2-fluorotetrahydro-1H-pyrrolizin-7a(5H)-yl)methoxy)pyrido[4,3-d]pyrimidin-4-yl)(methyl)amino)methyl)azetidin-1-yl)-3-(pyrimidin-4-yl)prop-2-en-1-one]: the IC50 under setting [1] lay in the range of 10 to 100 nM.
On the same count and under the same terms, the same measure for `CN1CCCC1/C=C/C(=O)N1CC[C@@H](N(C)c2nc(OC[C@@]34CCCN3C[C@H](F)C4)nc3c(F)c(-c4cccc5ccc(F)c(Cl)c45)ncc23)C1` (stereo partly drawn) [Example 124, (E)-1-((R)-3-((7-(8-chloro-7-fluoronaphthalen-1-yl)-8-fluoro-2-(((2R,7aS)-2-fluorotetrahydro-1H-pyrrolizin-7a(5H)-yl)methoxy)pyrido[4,3-d]pyrimidin-4-yl)(methyl)amino)pyrrolidin-1-yl)-3-(1-methylpyrrolidin-2-yl)prop-2-en-1-one]: 10 to 100 nM.
Consider `C=CC(=O)N1C[C@H](N(C)c2nc(OCC34CCCN3CCC4)nc3c2CCN(c2cccc4cccc(Cl)c24)C3)C[C@H]1C#N`, for which the IC50 under setting [2] fell in the range of 10 to 100 nM.
Consider `CN(c1nc(OC[C@@]23CCCN2C[C@H](F)C3)nc2c(F)c(-c3cccc4cccc(Cl)c34)ncc12)[C@@H]1CCN(C(=O)/C=C/[C@H]2CCN2CCO)C1` [Example 233, (E)-1-((R)-3-((7-(8-chloronaphthalen-1-yl)-8-fluoro-2-(((2R,7aS)-2-fluorotetrahydro-1H-pyrrolizin-7a(5H)-yl)methoxy)pyrido[4,3-d]pyrimidin-4-yl)(methyl)amino)pyrrolidin-1-yl)-3-((R)-1-(2-hydroxyethyl)azetidin-2-yl)prop-2-en-1-one], for which the IC50 under setting [1] was 10 to 100 nM.
Still for that read-out and setting: the result for `CN(c1nc(OCC23CCCN2CCC3)nc2c1CCN(c1cccc3cccc(Cl)c13)C2)[C@@H]1CCN(C(=O)/C=C/c2nc(C3COC3)no2)C1` [Example 156, (R,E)-1-(3-((7-(8-chloronaphthalen-1-yl)-2-((hexahydro-1H-pyrrolizin-7a-yl)methoxy)-5,6,7,8-tetrahydropyrido[3,4-d]pyrimidin-4-yl)(methyl)amino)pyrrolidin-1-yl)-3-(3-(oxetan-3-yl)-1,2,4-oxadiazol-5-yl)prop-2-en-1-one] reads 10 to 100 nM.
